Measurements reported in the SangsterLogP compilation.

details: not given

| Compound | logP |
| --- | --- |
| CNC(=O)c1ccoc1 | 0.34 |
| Cc1ccc2[nH]c(N)nc2c1 | 1.11 |
| CC(C)C(C)C | 3.42 |
| O=C(O)Cc1ccccc1Nc1c(F)cccc1Cl | 3.8 |
| N#CC(CCc1ccc(Cl)cc1)(Cn1cncn1)c1ccccc1 (stereo not drawn) | 3.23 |
| c1ccc(-c2cc3ccccc3[nH]2)nc1 | 3.33 |
| CC(=O)OC[C@H]1O[C@@H](n2ncc(=O)[nH]c2=O)[C@H](OC(C)=O)[C@@H]1OC(C)=O | -0.2 |
| CS(C)(=O)=O | -1.34 |
| CC(C)(C)NC(=O)[C@H]1CC[C@H]2[C@@H]3CC[C@H]4NC(=O)C=C[C@]4(C)[C@H]3CC[C@]12C | 3.03 |
| O=[N+]([O-])c1ccco1 | 0.66 |
| C=CCC | 2.4 |
| CNC(=O)c1ccco1 | 0.23 |
| Cc1nn(C)c(OCC(=O)c2ccccc2)c1C(=O)c1ccc(Cl)cc1Cl | 3.69 |
| C/C=C\C=C\C | 2.8 |
| COC(=O)C(Cl)(Cl)Cl | 2.03 |
| c1ncc2c(n1)-c1cn[nH]c1-2 | 0.14 |
| ICCCI | 3.02 |
| CC12CC(O)C3C(CCC4(O)CC(O)CC(O)C34CO)C1(O)CCC2C1=CC(=O)OC1 (stereo not drawn) | -0.02 |
| COC(=O)CCCCCC(=O)OC | 1.38 |
| Cc1ccccc1COC1CC2(C(C)C)CCC1(C)O2 (stereo not drawn) | 3.83 |
| CN(C)/C=C/C#N | 0.47 |
| FCC1CO1 (stereo not drawn) | -0.16 |
| COc1ccc2c(c1)nc(N)n2C | 0.87 |
| CCCCn1cc(C)c(=O)[nH]c1=O | 0.91 |
| Nc1ccccc1SSc1ccccc1N | 3.05 |

| Compound | logP |
| --- | --- |
| O=C(COC(=O)c1ccccc1)NC1CCCCC1 | 2.81 |
| CCC(C)(C)Cl | 2.52 |
| Cc1ccc(/C=N/O)cc1 | 2.4 |
| N#Cc1ccc(C#N)cc1 | 0.93 |
| CCC(C(N)=O)(C(N)=O)c1ccccc1 | 0.13 |
| Cn1cccn1 | 0.23 |
| CC(C)(C)NCC(O)COCC=Cc1ccccc1 (stereo not drawn) | 2.69 |
| CC(=O)C(C)(C)C | 1.2 |
| CN1CCCC1=O | -0.54 |
| CCCSP(=O)(OCC)Oc1cnn(-c2ccc(Cl)cc2)c1 (stereo not drawn) | 3.77 |
| O=C(CCBr)N1CCN(C(=O)CCBr)CC1 | 0.42 |
| OCC=CCO | -0.81 |
| COc1cccc(N(C)C(=S)Oc2cccc(C(C)(C)C)c2)n1 | 5.18 |
| O=C1CC(Sc2ccncc2)N1 (stereo not drawn) | 0.61 |
| CNC(=S)NNc1ccccc1 | 1.17 |
| O=CN1CCCC1 | -0.32 |
| Cn1c(N)nc2ccc(Cl)cc21 | 2.01 |
| CC(C)Cc1cc([N+](=O)[O-])cc(C(C)C)c1O | 4.19 |
| N#C/C=C/C#N | -0.25 |
| C=CCSc1ccccc1 | 3.51 |
| CCC(=O)N(C)C | -0.11 |
| CC(C)NC(C)C | 1.4 |
| COc1ccc2cc([C@H](C)C(=O)OCC(=O)N(CCO)CCO)ccc2c1 | 1.7 |
| BrCCCBr | 2.37 |
| COC(=O)CCCC(=O)OC | 0.62 |

| Compound | logP |
| --- | --- |
| CCC(C)c1cc([N+](=O)[O-])cc(C(C)CC)c1O (stereo not drawn) | 4.8 |
| O=S1(=O)OCC2C(CO1)C1(Cl)C(Cl)=C(Cl)C2(Cl)C1(Cl)Cl (stereo not drawn) | 3.66 |
| CCn1cnc([N+](=O)[O-])n1 | -0.23 |
| CCc1cccnc1 | 1.66 |
| Clc1c(Cl)c(Cl)c2ccccc2c1Cl | 5.75 |
| c1ccc2c(c1)CCc1ccccc1-2 | 4.52 |
| CCCCC(NC(Cc1ccccc1)C(=O)N1CCC(OCOC)CC1)C(=O)NC(CC1CCCCC1)C(O)CC(C(=O)NCCNC(N)=NC#N)C(C)C (stereo not drawn) | 4.14 |
| FC(F)(F)CCc1ccccc1 | 3.31 |
| CC(C(=O)O)c1ccc(N2C(=O)C3CCCCC3C2=O)cc1 (stereo not drawn) | 2.37 |
| CC1COC(=O)O1 (stereo not drawn) | -0.41 |
| CC(C)C(C)OCc1cn(C)c(C=NO)n1 (stereo not drawn) | 2.53 |
| CCSC | 1.54 |
| CC1(C)N=C(N)N=C(N)N1c1cccc(OCCOc2ccccc2)c1 | -0.84 |
| CCC(=O)OC | 0.82 |
| O=C(Nc1ccc(Cl)cc1)c1cccnc1 | 2.53 |
| Fc1cccc(F)n1 | 1.17 |
| COc1ccc2cc(C(C)C(=O)OCC(=O)N(C)CC(N)=O)ccc2c1 (stereo not drawn) | 1.37 |
| CCOC(=O)Nc1cccc(OC(=O)Nc2ccccc2)c1 | 3.39 |
| CN(C)c1ccc2c(c1)C(=O)N(O)C2=O | 1.27 |
| CC(C)(C)C(=O)C(C)(C)C | 3 |
| CC(=O)N(C)Nc1ccccc1 | 1.31 |
| c1ccc(-c2ccncn2)cc1 | 1.92 |
| COc1ccc(S(C)(=O)=O)cc1 | 0.76 |
| ClC(Cl)C(Cl)(Cl)Cl | 3.22 |
| Cn1cccc1/C=N/NC(=S)Nc1ccccc1 | 3.64 |

| Compound | logP |
| --- | --- |
| O=C1C=CC(=O)N1c1ccccc1 | 1.09 |
| c1ccc(N2CCCC2)cc1 | 3.56 |
| CC(C)SC(C)C | 2.84 |
| C=CCOCC1CO1 (stereo not drawn) | 0.46 |
| O=C(O)Cc1ccccc1Nc1c(F)cccc1F | 3.57 |
| O=C1CCc2cccc3c2N1CC3 | 1.6 |
| C1COC1 | -0.14 |
| c1ccc2c(c1)Oc1ccccc1S2 | 4.54 |
| Cc1cccc(C)c1N | 1.84 |
| O=Nc1ccc(NO)cc1 | 1.49 |
| Cc1cc2ccccc2cn1 | 2.68 |
| CCOC(=O)C(=O)Nc1ccccc1 | 1.48 |
| Nc1n[nH]c(Cc2ccc([N+](=O)[O-])o2)n1 | 1.28 |
| CC(C(=O)O)c1ccc(N2C(=O)C3CCCCC3C2O)cc1 (stereo not drawn) | 2.95 |
| O=C(Nc1ccccc1)Nc1ccccc1 | 3 |
| C1=c2ccc3cccc4ccc(c2c43)CC1 | 4.92 |
| CC(C(=O)O)c1ccc(N2C(=O)C3C4C=CCC3(C4)C2=O)cc1 (stereo not drawn) | 2.31 |
| CC(C)(C)c1cccc(C(C)(C)C)n1 | 4.14 |
| CCOC(=O)CCN(Cc1ccccc1)SN(C)C(=O)ON=C(C)SC | 3.43 |
| O=C(N/N=C/c1ccc[nH]1)Nc1ccccc1 | 2.96 |
| Cn1c(=O)sc2ccccc21 | 1.98 |
| COc1ccc(C(C)=O)c(OC)c1OC | 1.63 |
| Cn1c(N)nc2ccc(C#N)cc21 | 1.29 |
| N#CC#N | 0.07 |
| CN(C)N=Nc1nccs1 | 1.27 |

| Compound | logP |
| --- | --- |
| Oc1ccc(C(F)(F)F)cc1 | 2.82 |
| c1ccc(-c2csnn2)cc1 | 2.42 |
| CC(=O)C1CC1 | 0.49 |
| O=C(CCn1cnc([N+](=O)[O-])n1)NCCO | -1.32 |
| FC(F)(F)c1ccc(C(F)(F)F)cc1 | 3.83 |
| CN1C(=O)CCC1=O | -0.95 |
| CC(C)(C)Br | 1.15 |
| OC1CCCCCCCCCCC1 | 3.75 |
| O=C(O)Cc1csc(-c2ccc(Cl)cc2)n1 | 3.29 |
| Cc1cccc(OCc2ccccc2)n1 | 3.43 |
| CCNC(=O)C1C2C=CC(C2)C1C(=O)NCC (stereo not drawn) | 0.99 |
| Clc1cc(Cl)c2cc(Cl)ccc2c1 | 5.35 |
| CCCCC(=O)OC | 1.96 |
| CC(=O)CCC(C)=O | -0.27 |
| CCCCCCCCn1cc(C)c(=O)[nH]c1=O | 3.04 |
| Clc1cc(Cl)c2cc(Cl)cc(Cl)c2c1 | 6.19 |
| C1CCCCCC1 | 4 |
| CC(=O)Nc1nccs1 | 0.76 |
| O/N=C/c1ccc(Cl)cc1 | 2.67 |
| C=CCOC1=NS(=O)(=O)c2ccccc21 | 1.4 |
| COCC(C)OC (stereo not drawn) | -0.09 |
| COc1ccc([N+](=O)[O-])cn1 | 1.55 |

same assay, conditions: pH 1.0

| Compound | logD |
| --- | --- |
| N#CCC(=O)O | -0.76 |
| O=C(O)/C=C/c1ccc([N+](=O)[O-])cc1 | 2.12 |
| CC(C)(C)C#N | 1.08 |
| O=C(O)c1c2ccccc2cc2ccccc12 | 3.85 |
| CC(C)CC#N | 1.07 |

same assay, conditions: pH 2.1

| Compound | logD |
| --- | --- |
| CC(=O)c1cccc(S(N)(=O)=O)c1 | 0.25 |
| CCCCCCOc1ccc(S(N)(=O)=O)cc1[N+](=O)[O-] | 3.03 |

same assay, conditions: pH 3.5

| Compound | logD |
| --- | --- |
| C1CCC(Cc2nnn[nH]2)CC1 | 1.59 |

same assay, conditions: pH 4.0

| Compound | logD |
| --- | --- |
| O=[N+]([O-])c1cc(C(F)(F)F)cc([N+](=O)[O-])c1NN=C(C(F)(F)F)C(F)(F)F | 3.6 |

same assay, conditions: pH 7.0

| Compound | logD |
| --- | --- |
| S=c1nc(-c2ccccc2)[nH][nH]1 | 1.84 |
| Nc1nc(Cl)c2ncn([C@@H]3O[C@H](CO)C[C@@H]3F)c2n1 | 0.28 |
| CCC1COC(Cn2cncn2)(c2ccc(-n3cncn3)cc2Cl)O1 (stereo not drawn) | 1.28 |
| CCCCN(CC)c1c([N+](=O)[O-])cc(C(F)(F)F)cc1[N+](=O)[O-] | 5.29 |

same assay, conditions: pH 7.4

| Compound | logD |
| --- | --- |
| CC(C)Cn1c(=O)n(C)c(=O)c2[nH]c(CC(O)N3CCN(C(c4ccccc4)c4ccccc4)CC3)nc21 (stereo not drawn) | 5.21 |
| Cc1cc(CCCCCCCOc2ccc(C3=NCCO3)cc2)on1 | 4.79 |
| Cc1ccnc2ccccc12 | 2.61 |
| OC[C@H]1O[C@@H](n2cnc3c2NC=NC[C@H]3O)C[C@@H]1O | -2.09 |
| CN1C(=O)CN=C(c2ccccc2F)c2c(F)cccc21 | 2.41 |
| CC(=O)Nc1cccc2cccnc12 | 1.91 |
| Cn1cc(-c2ccccc2)c(=O)c(-c2cccc(C(F)(F)F)c2)c1 | 3.16 |
| COC(=O)NCCn1c([N+](=O)[O-])cnc1C | 0.02 |
| Cn1c([N+](=O)[O-])cnc1C=NNC(N)=S | 0.65 |
| CCc1ccc([N+](=O)[O-])cc1 | 3.03 |
| O=C(NC(F)(F)F)c1cccc2cccnc12 | 3.24 |
| CCc1nc(C)c([N+](=O)[O-])[nH]1 | 0.76 |
| CNC(=O)c1cccc2cccnc12 | 1.87 |
| CCN(CCO)c1ccccc1 | 2.1 |
| Clc1cccc2cccnc12 | 2.44 |
| O=C(Cn1ccnc1[N+](=O)[O-])NCc1ccccc1 | 0.85 |
| C#CCn1ncc2cc([N+](=O)[O-])ccc21 | 0.52 |
| O=C1CN=C(c2ccccc2F)c2cc(Br)ccc2N1 | 2.98 |
| COC(=O)c1ccc(-c2ncc([N+](=O)[O-])n2C)cc1 | 1.63 |

same assay, conditions: pH 9.0

| Compound | logD |
| --- | --- |
| Cc1c[nH]cn1 | 0.23 |

same assay, conditions: pH 13.0

| Compound | logD |
| --- | --- |
| CN(C)CCNCCN | -0.92 |
| CC(C)NC(C)(C)C | 1.56 |
| C[C@@H]1CCC[C@H](C)N1 | 1.53 |
| c1ccc(N2CCNCC2)cc1 | 1.11 |
| CN1CCN(C)CC1 | -0.4 |
| Nc1ncc(Cc2ccccc2Cl)c(N)n1 | 2.24 |
| Cc1cc(C)c(N(C)C)c(C)c1 | 4.44 |
| N#CCN | -1.37 |
| CN(C1CCCCC1)C1CCCCC1 | 3.71 |
| CC(=O)c1ccc(N2CCCCC2)cc1 | 3.13 |
| CC(C)(C)NCCO | 0.41 |
| CC(C)(C)N(CC(O)COc1ccccc1)CC(O)COc1ccccc1 (stereo not drawn) | 3.99 |
| CC(C)CN(CC(O)COc1ccccc1)CC(O)COc1ccccc1 (stereo not drawn) | 3.46 |
